Earlier results in paper PMC11208559 (Scientific Reports, 2024).

Conditions: cited from earlier work

## C=CCNC1=C2C[C@@H](C)C[C@H](OC)[C@H](O)[C@@H](C)/C=C(\C)[C@H](OC(N)=O)[C@@H](OC)/C=C\C=C(/C)C(=O)NC(=CC1=O)C2=O [17-AAG]
  tolerability in clinical trials: liver toxicity
